Assay results: US10188622B2, “Use of a composition comprising fish oil and juice for the treatment and/or post treatment of cancer” (Smartfish AS, priority 2013, dated 2019)
“And” between values parts separate entries of the source, which are not always exact repeats. Equal entries are not always repeated.

System: MP2 cells co-cultured with NK (IL-2) cells
Test: Enzymatic caspase-3 assay (CaspACE-3) in co-culture of pancreatic cancer cells and NK cells
Format: cell-based, human
Details: 48 hours; for Casp-3, X1 / Casp-3, X2 / Casp-3, X3 / Casp-3, Mean: MP2 cells + NK (IL-2); for Casp-3, X1: experiment X1; for Casp-3, X1 / Casp-3, X2 / Casp-3, X3: RvD1 and DHA 50 nM; for Casp-3, X2: experiment X2; for Casp-3, X3: experiment X3; for Casp-3, Mean: mean of X1-X3; for caspase-3 expression (mean ± 2× standard error): PDAC (MP2) cells co-cultured with NK cells, as stated in text
Description: Mia Paca2 (MP2) and L3.6 cells from pancreatic ductal adenocarcinoma so (PDAC) were obtained from T. Donahue, UCLA Surgery and were propagated in Dulbecco's Modified Eagle's Medium (DME) with 10% foetal calf serum. 10,000 cells were plated in each well of 24-well plates and were grown at 37° C. and 24 h to near confluence before testing.
These were isolated from human blood by NK cell isolation kit (Stem cell technologies, Vancouver, Canada). NK cells were activated by treatment with IL-2 or IL2/CD16 as described in Tseng, H. C. et al. “Increased lysis of stem cells but not their differentiated cells by natural killer cells; de-differentiation or reprogramming activates NK cells.” PLOS One 5(7): e11590, 2010.
Composition of the invention (Nutrifriend 2000) containing DHA (1000 mg/200 ml) and EPA (1000 mg/200 ml) was purchased by the company Smartfish AS, Oslo, For use in cell culture, diluted 1:2 with fetal calf serum, sonicated for 30 sec and then diluted 1:100 in DMEM with 10% fetal calf serum.
NK cells were added to MP2 or L3.6 cells at a ratio of 5 NK cells per 1 MP2 cell. The co-cultures were treated with Smartfish. Addition of DHA (50 nM) or resolvin D1 (RvD1 from Cayman Chemical company, Ann Arbor, Mich., 50 nM) were tested as controls. The co-cultures is were grown for 48 hours, harvested and tested by the caspase-3 assay.
The enzymatic caspase-3 assay was performed by the CaspACE-3 assay G-7351 (Promega Corporation, Madison, Wis.) according to the manufacturer's instructions.
The data were analyzed by comparing the range of means (mean+/−2× standard error of mean). When indicated the exact value was calculated by the Fisher exact test.

## CC/C=C\C/C=C\C/C=C\C/C=C\C/C=C\C/C=C\CCC(=O)O [DHA, docosahexanoic acid]
  Casp-3, X1: 5.7 µM
  Casp-3, X2: 6.6 µM
  Casp-3, X3: 6 µM
  Casp-3, Mean: 6.1 µM
  caspase-3 expression (mean ± 2× standard error): 6.1 µM and 6.1 ± 0.48 µM

## CC/C=C\C[C@H](O)/C=C/C=C\C=C\C=C\[C@@H](O)[C@@H](O)C/C=C\CCC(=O)O [RvD1, resolvin D1]
  Casp-3, X1: 6 µM
  Casp-3, X2: 6.3 µM
  Casp-3, X3: 6.6 µM
  Casp-3, Mean: 6.3 µM
  caspase-3 expression (mean ± 2× standard error): 6.3 ± 0.31 µM
Listed as resolvinD1
  caspase-3 expression (mean ± 2× standard error): 6.3 ± 0.31 µM
